Some results are limits rather than exact numbers.

The assay concerns the target T1, AR protein (Homo sapiens, UniProt P10275).
T1 construct: VCap is a human prostate cancer cell line purchased from ATCC; host or cells: VCaP human prostate cancer cells
T1 sequence (P10275 1-920): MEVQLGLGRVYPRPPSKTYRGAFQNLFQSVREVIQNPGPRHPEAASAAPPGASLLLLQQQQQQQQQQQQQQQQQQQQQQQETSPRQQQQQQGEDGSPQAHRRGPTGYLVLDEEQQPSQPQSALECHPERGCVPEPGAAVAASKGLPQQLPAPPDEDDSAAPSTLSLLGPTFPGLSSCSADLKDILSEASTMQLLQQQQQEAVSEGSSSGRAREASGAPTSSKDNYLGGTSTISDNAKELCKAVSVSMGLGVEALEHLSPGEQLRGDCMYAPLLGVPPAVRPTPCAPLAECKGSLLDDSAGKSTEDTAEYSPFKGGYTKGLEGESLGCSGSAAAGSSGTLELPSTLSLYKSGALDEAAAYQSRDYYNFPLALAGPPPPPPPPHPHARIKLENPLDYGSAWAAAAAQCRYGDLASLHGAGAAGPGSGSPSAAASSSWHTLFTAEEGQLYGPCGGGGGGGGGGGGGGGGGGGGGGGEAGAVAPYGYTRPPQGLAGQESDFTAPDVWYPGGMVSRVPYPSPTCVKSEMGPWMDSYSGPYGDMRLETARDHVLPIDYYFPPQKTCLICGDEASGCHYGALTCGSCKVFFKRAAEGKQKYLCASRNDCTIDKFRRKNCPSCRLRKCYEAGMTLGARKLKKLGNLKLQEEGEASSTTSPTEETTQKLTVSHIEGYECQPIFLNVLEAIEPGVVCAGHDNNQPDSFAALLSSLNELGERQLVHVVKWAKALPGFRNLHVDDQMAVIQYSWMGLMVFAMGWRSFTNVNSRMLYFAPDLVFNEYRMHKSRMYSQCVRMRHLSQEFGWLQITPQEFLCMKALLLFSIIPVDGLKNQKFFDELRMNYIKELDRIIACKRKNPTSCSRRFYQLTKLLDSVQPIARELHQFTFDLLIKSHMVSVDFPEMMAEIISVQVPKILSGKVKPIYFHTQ
The experiment in a line: Detection of AR degradation in VCaP cells (automated western blot). Format: cell-based. The following applies: degradation of AR protein in VCaP cells, 24 hours incubation; read-out: DC50. In outline:
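VCaP cells (5 × 10^5/well) were treated with compounds at various concentrations for 24 h at 37°C. Lysate AR level was quantified by automated capillary western blot, normalised to β-actin and expressed relative to solvent control. DC50 came from four-parameter nonlinear regression; degradation rate = 100 − AR%.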
(In western blotting, separated proteins are transferred to a membrane and probed.)

As usually defined, the DC50 is the concentration at which degradation of the target reaches its halfway point. Turning to `CC1(C)[C@H](NC(=O)c2ccc(N3CCC(CN4CCN5c6cc(F)c(C7CCC(=O)NC7=O)cc6CC[C@H]5C4)CC3)cc2)C(C)(C)[C@H]1Oc1ccc(C#N)c2ncccc12` (stereo partly shown) [Compound 31], the DC50 was below 100 nM.

Values taken from patent EP4763845A1, “CYANO AROMATIC RING DERIVATIVE AND PHARMACEUTICAL USE THEREOF” (Haisco Pharmaceutical Group Co., Ltd., priority 2023, dated 2025).
